Square brackets hold non-standard residues; d marks the D form. Ends that are not written are not given here. Peptide text beside a SMILES is read from it. * marks the point of attachment. d2Nal = N[C@H](Cc1ccc2ccccc2c1)C(=O)O; Myristoyl = CCCCCCCCCCCCCC(=O)*; Aib = CC(C)(N)C(=O)O
Key:
[1] = cited from earlier work
HUVECs = assay: Endothelial cell tube formation induced by CCL28; type: cell-based, human; conditions: induced by 500 ng/ml CCL28
Experimental: Endothelial Cell Tube Formation. HUVECs were transfected with eNOS (50 nM), CCR10 (100 nM), or scrambled control (100 nM) siRNA and, after 48 hours, the cells were transferred to 96-well plates preloaded with extracellular matrix sold under the tradename […]®. To examine the CCL28 signaling pathways, HUVECs were pre-incubated with vehicle or specific inhibitors and then stimulated with or without CCL28 as described previously (Chen, et al. (2015) Ann. Rheum. Dis. 74:1898-1906).
The role of CCL28/CCR10 signaling pathways was further investigated in angiogenesis. Pretreatment of cells with 10 μM wortmannin (PI3K inhibitor), 5 μM U0126 (MAPK/ERK inhibitor), 1 mM L-NAME (eNOS inhibitor), 10 μM PP2 (Src kinase inhibitor), and 10 μM STO-609 ([…]) reduced endothelial cell tube formation induced by 500 ng/ml CCL28. […] In addition, CCL28 stimulation of endothelial cells for 24 hours enhanced expression levels of cell adhesion protein […] and anti-apoptotic protein B-cell leukemia/lymphoma-2 (Bcl-2), supporting the proliferation potential of endothelial cells in response to stimulation with CCL28.

CCR10-eNOS interaction [2] = target: T1, CCR10-eNOS interaction (Homo sapiens, UniProt P46092); assay: Ligand-induced CCR10-eNOS interaction in HUVEC (Co-IP, confocal co-localization); type: cell-based
T1 construct: host or cells: HUVEC (primary human umbilical vein endothelial cells)
T1 sequence (P46092 1-362): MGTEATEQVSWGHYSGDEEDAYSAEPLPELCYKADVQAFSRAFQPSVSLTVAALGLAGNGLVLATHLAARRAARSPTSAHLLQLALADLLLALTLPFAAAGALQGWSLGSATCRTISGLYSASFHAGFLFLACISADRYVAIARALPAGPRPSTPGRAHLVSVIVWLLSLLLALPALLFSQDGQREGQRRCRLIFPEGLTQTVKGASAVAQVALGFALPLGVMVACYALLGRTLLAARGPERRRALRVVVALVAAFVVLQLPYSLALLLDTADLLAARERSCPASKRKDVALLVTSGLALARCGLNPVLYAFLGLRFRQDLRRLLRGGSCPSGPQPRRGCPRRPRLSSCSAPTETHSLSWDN
Experimental: (§1) Co-IP Experiments, cells or mouse wounds were collected after treatment, and lysed in 2% ODG in Tris buffer. The homogenates were further prepared for Co-IP experiments as described in the art (Chen, et al. (2018) Mol. Biol. Cell 29(10):1190-1202; Chen, et al. (2020) FASEB J. 34(4):5838-5850; Chen, et al. (2015) Ann. Rheum. Dis. 74:1898-1906).
Confocal Microscopy. For cellular immunostaining, confluent monolayers of cells grown on coverslips were prepared as described previously (Chen, et al. (2012) Mel. Biol. Cell 23(7):1388-1398). Fluorescent images were obtained using a Zeiss LSM 880 confocal microscope. The co-localization coefficient in specified regions of interest (ROI) were determined using Zeiss Zen software. Briefly, using the Overlay tool, the desired ROI was drawn along the cell edge and the values for the ROIs tabulated. The scatterplot and table were automatically adjusted to the pixel distribution for the selected ROI. The data from different treatment groups were collected and analyzed for statistical significance as described previously (Chen, et al. (2020) FASEB J. 34(4):5838-5850).
To investigate whether CCR10 interacts directly with eNOS, primary culture HUVEC were collected and prepared for co-immunoprecipitation (Co-IP) to assess CCR10-eNOS interaction following stimulation with 5 μM A23187. […] Similar results were obtained in endothelial cells following stimulation with 500 ng/ml human recombinant CCL28. CCR10-eNOS interaction was further supported by confocal microscopy and high-resolution imaging. Upon stimulation with A23187 or CCL28 for 5 minutes, CCR10 co-localized to a greater extent with eNOS on the plasma membrane. Co-localization coefficient in the regions of interest (ROI) in the plasma membrane were quantified from Zeiss LSM 880 confocal microscope images using Zeiss Zen software.

CCR10-eNOS interaction [3] = target: T1, CCR10-eNOS interaction; assay: Co-IP of CCR10-eNOS interaction in HUVECs stimulated with A23187; type: cell-based; conditions: endothelial cells (HUVECs), pretreatment 50 μM, 5 μM A23187 for 5 minutes, vs control peptide
Experimental: Immunoblot and Co-Immunoprecipitation (Co-IP). After serum starvation, inhibitors were added 45 minutes prior to stimulation for indicated times at 37° C., and cells were then collected and lysed for western blot analysis. After probing for p-eNOS (Ser1177), p-p85 (Tyr458), p-Src (Tyr 416), and p-ERK (T202/Y204), the same blots were stripped and re-probed for total proteins mentioned above. For detection of CCL28-induced protein levels of β-catenin and Bcl-2, near-confluent endothelial cells were incubated with 500 ng/ml CCL28 for 24 hours in EGM-2 medium containing 1% FBS.
as §1
Therefore, the effect of inhibition of CCR10-eNOS interaction was investigated using a panel of cell-permeable peptides based on the sequence of the predicted interaction domain on eNOS. Similar peptides have been described in determining the solution structure of calmodulin bound to the target peptide of eNOS (Piazza, et al. (2014) Biochemistry 53(8):1241-9; Piazza, et al. (2016) Biochemistry 55(42):5962-71). First, myristoylated 20 amino acid peptide (491-[…]-510 (P1); SEQ ID NO:61) was synthesized based on the sequence of human eNOS (which is conserved in mouse eNOS). […] It was subsequently determined whether truncated versions of the CBD-derived peptide would have the same effect.

Compound: CC(C)(N)C(=O)N[C@@H](Cc1c[nH]cn1)C(=O)N[C@H](Cc1ccc2ccccc2c1)C(=O)N[C@H](Cc1ccccc1)C(=O)N[C@@H](CCCCN)C(N)=O [Ipamorelin] (H-[Aib]H[d2Nal][dF]K-NH2)
- terminal half-life ([1]; in humans): about 2 hours

Compound: COC(=O)[C@@H](N)CCCNC(=N)N[N+](=O)[O-] [L-NAME, N^G-nitro-L-arginine methyl ester]
- endothelial cell tube formation (HUVECs; pretreatment 1 mM): reduced

Compound: CNc1ccc2oc(C[C@H]3O[C@@]4(CC[C@H]3C)O[C@H]([C@H](C)C(=O)c3ccc[nH]3)[C@H](C)C[C@H]4C)nc2c1C(=O)O [Peptide A23187]
- binding of CCR10 to eNOS (Co-IP) (CCR10-eNOS interaction [2]; HUVEC, 5 μM): Enhanced
- time of maximum CCR10-eNOS binding (CCR10-eNOS interaction [2]; HUVEC, 5 μM): 5 minutes
- Co-localization coefficient of CCR10 and eNOS (CCR10-eNOS interaction [2]; plasma membrane ROI, stimulation for 5 minutes, untreated control cells 43%): 81%

Compound: N#CC(=C(/N)Sc1ccccc1N)/C(C#N)=C(\N)Sc1ccccc1N [Peptide U0126]
- endothelial cell tube formation (HUVECs; pretreatment 5 μM): reduced

Compound: O=C(O)c1ccc2c3c1cccc3c(=O)n1c3ccccc3nc21 [STO-609]
- endothelial cell tube formation (HUVECs; pretreatment 10 μM): reduced

Compound: NC(=O)CC[C@@H]1NC(=O)[C@H](Cc2ccccc2)NC(=O)[C@H](Cc2ccc(O)cc2)NC(=O)[C@@H](N)CSSC[C@@H](C(=O)N2CCC[C@H]2C(=O)N[C@@H](CCCN=C(N)N)C(=O)NCC(N)=O)NC(=O)[C@H](CC(N)=O)NC1=O [vasopressin]
- half-life ([1]; in humans): 0.167 to 0.583 h

Compound: albiglutide
- half-life ([1]; in humans): 140 to 170 h

Compound: myr-FKEVANAVKISASLM (Myristoyl-FKEVANAVKISASLM) [Peptide P2]
- CCR10-eNOS interaction (Co-IP) (CCR10-eNOS interaction [3]): completely blocked

Compound: myr-TRKKTFKEVANAVKISASLM (Myristoyl-TRKKTFKEVANAVKISASLM) [Peptide P1]
- CCR10-eNOS interaction (Co-IP) (CCR10-eNOS interaction [3]): completely blocked
- CCR10-eNOS interaction (Co-IP) (CCR10-eNOS interaction [3]; listed as Myr-CBD20): significantly reduced

Compound: myr-VANAVKISASLM (Myristoyl-VANAVKISASLM) [Peptide P3]
- CCR10-eNOS interaction (Co-IP) (CCR10-eNOS interaction [3]): completely blocked

Compound: peginesatide
- elimination half-life ([1]; in healthy volunteers): 18.9 h

Reference: patent US20220265759A1, “COMPOSITION AND METHOD FOR PROMOTING WOUND HEALING” (THE BOARD OF TRUSTEES OF THE UNIVERSITY OF ILLIOIS, priority 2019, published 2022)
